Read-outs that look alike come from different tables or passages of the source.
Tests used:
[1] = target: T1, human thyroid receptor alpha ligand-binding domain (LBD) (Homo sapiens, UniProt P10827); test: TR-FRET thyroid receptor alpha coactivator assay (THR biochemical assay, Assay 1); details: for EC50: Table 4, THR-alpha, read-out: Activity category Assay 1 (EC50, THR-alpha agonist activity); for Activity category Assay 1 THRα (Emax) / Emax: Table 5, THRα; for Emax: read-out: Activity category Assay 1 THRα (Emax)
T1 construct: purchased Invitrogen
Procedure, shortened: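 Agonist-driven coactivator recruitment measured by TR-FRET: terbium anti-GST antibody (2 nM) bound to GST-LBD of TRβ or TRα (1 nM final, stated for β), with fluorescein SRC2-2 peptide at 200 nM. Compounds at 1% DMSO. Read after 1 h, room temperature, protected from light.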

THR beta = target: T2, THR beta (Homo sapiens, UniProt P10828); test: HEK293T THR beta/RXR luciferase reporter assay (Assay 2); format: cell-based; details: for Emax: HEK-293T
T2 construct: expressed in transfected cells; host or cells: HEK293T (ATCC CRL-3216)
T2 sequence (P10828 1-461): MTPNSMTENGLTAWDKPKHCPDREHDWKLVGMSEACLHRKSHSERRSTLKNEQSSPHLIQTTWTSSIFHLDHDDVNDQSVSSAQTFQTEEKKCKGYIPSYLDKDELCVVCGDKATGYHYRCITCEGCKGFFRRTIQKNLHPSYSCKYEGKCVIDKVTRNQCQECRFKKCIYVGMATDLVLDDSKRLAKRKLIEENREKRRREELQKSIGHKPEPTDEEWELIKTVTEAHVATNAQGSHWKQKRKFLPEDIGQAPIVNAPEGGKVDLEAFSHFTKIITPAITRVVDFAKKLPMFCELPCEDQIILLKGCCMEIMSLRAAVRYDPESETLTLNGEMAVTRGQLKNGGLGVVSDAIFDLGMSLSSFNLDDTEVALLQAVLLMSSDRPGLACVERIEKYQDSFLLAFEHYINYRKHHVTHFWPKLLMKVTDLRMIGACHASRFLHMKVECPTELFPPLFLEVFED
T2 sequence (P19793 1-462 partner): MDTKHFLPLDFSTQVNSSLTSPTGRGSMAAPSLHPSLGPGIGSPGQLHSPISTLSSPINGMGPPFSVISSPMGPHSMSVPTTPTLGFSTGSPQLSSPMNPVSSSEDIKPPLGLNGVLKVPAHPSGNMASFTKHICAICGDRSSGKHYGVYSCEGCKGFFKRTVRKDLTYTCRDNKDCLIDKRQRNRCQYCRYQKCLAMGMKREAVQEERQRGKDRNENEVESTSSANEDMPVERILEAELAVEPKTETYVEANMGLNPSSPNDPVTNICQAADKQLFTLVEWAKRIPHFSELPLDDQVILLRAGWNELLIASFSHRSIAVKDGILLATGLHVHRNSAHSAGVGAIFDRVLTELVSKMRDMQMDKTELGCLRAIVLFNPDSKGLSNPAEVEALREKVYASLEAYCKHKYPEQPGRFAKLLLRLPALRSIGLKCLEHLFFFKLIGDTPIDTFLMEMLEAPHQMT
Procedure, shortened: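 Compounds tested as ten-point five-fold dilution series for 18-24 h on transiently transfected HEK293T cells carrying TRE-driven luciferase plus RXR and either THR alpha or beta expression plasmids. Read-out by One-Glo luminescence, expressed as percent agonism relative to negative and positive controls.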

[2] = test system: CPT1A gene expression in Huh-7 cells; test: Huh-7 differential gene expression, CPT1A RT-qPCR (Assay 3); format: cell-based; details: Table 6, Huh-7 cells, CPT1A, 24 hr treatment; for EC50: read-out: Activity category Assay 3 EC50; for Emax: read-out: Activity category Assay 3 Emax
Procedure: Huh-7 Differential Gene Expression (Assay 3)
Fetal bovine serum (FBS) was incubated with washed resin (50 mg resin/mL FBS; resin weight is dry weight of resin prior to washing) for 5 hr at room temperature on a rotor. The FBS was separated from the resin via centrifugation and incubated with new, washed resin for 18 h at room temperature on a rotor.
Cell Culture and Drug Treatment
Huh-7 cells were cultured in DMEM (10-013-CM, Corning) supplemented with 10% FBS and 1% Pen-Strep at 37° C. under 5% C02. When 70-80% confluence was reached, the cells were removed by trypsinization. The medium was aspirated from the cell culture dish, the cell monolayer was washed with 1×PBS, and 0.05% trypsin, 0.53 mM EDTA (25-052-CV, Corning) solution was added to the dish. After 3 min incubation, the cells were detached completely by repeatedly pipetting solution onto the monolayer. Equal volume of DMEM supplemented with 10% rFBS and 1% Pen-Strep (TH-depleted DMEM) was added to the dish to inactivate the trypsin. The cell suspension was centrifuged at 350×g at room temperature for 3 min. The supernatant was aspirated out and the cell pellet was resuspended in TH-depleted DMEM. […] After 24 hr incubation, the media was replaced with treatment media. All compounds were serially diluted in DMSO and final concentrations were reached by dilution in TH-depleted DMEM (0.1% DMSO). The cells were incubated in treatment media for 24 hr. Treatments were performed in biological duplicates.
After 24 hr in treatment media, the cells were lysed directly on the culture plates and cDNA was produced using the TaqMan™ Fast Advanced Cells-to-CT™ Kit (A35374, Invitrogen) and following the manufacturer's protocol. RT-qPCR for CPT1A (Hs00912671_m1) and two housekeeping genes, ACTB (Hs01060665_g1) and TFG (Hs02832013_g1), was performed using TaqMan™ Fast Advanced Master Mix. RT-qPCR reactions were run on the qTOWER^3 84 G (Analytik Jena) in technical duplicates.
ΔRn values were obtained from the qPCRsoft384 1.0 software and CPT1A gene expression was quantified via the 2-ΔΔCt method. Dose-response curves were generated using GraphPad Prism 8 using four parameter logistic equation without top constraint to derive EC50 and Emax.

[3] = THR-beta, HEK293T reporter assay, read-out: Activity category Assay 2 (EC50, THR-beta agonist)
[4] = Table 5, Assay 2, THRβ, read-out: Activity category Assay 2 THRβ (Emax)

T1 sequence (P10827 163-410 isoform P10827-2 limits assumed, other chains not shown): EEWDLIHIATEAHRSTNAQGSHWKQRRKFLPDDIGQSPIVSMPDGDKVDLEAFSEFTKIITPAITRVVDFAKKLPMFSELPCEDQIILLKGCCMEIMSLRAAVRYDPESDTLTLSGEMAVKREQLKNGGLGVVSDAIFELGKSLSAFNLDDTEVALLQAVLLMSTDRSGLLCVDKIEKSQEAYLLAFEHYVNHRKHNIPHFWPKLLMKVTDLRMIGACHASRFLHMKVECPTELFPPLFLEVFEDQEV

| EC50 [1] [nM] | Activity category Assay 1 THRα (Emax) [1] | EC50 (THR beta; [3]) [nM] | Activity category Assay 2 THRβ (Emax) (THR beta; Table 5, Assay 2, THRβ) | EC50 [2] [nM] | Emax [1] [%] | Emax (THR beta; [4]) [%] | EC50 ([2]; Homo sapiens, Huh-7, 24 h) [nM] | EC50 (THR beta; HEK293T reporter THRbeta/RXR, read-out: EC50 β) [nM] | Emax (THR beta; HEK293T reporter THRbeta/RXR, read-out: percent in parentheses below EC50 β (percent agonism / Emax)) [%] | SMILES | Activity category Assay 3 Emax [2] | Emax ([2]; Homo sapiens, Huh-7, 24 h) [%] |
| --- | --- | --- | --- | --- | --- | --- | --- | --- | --- | --- | --- | --- |
| 1000 to 25000 | C (Emax<50%) | 250 to 1000 | A (Emax≥75%) | > 100 | – | – | – | – | – | CC(c1cc(Oc2c(Cl)cc(-n3nc(N)c(=O)[nH]c3=O)cc2Cl)n[nH]c1=O)C1CC(F)(F)C1 (single isomer, unassigned) [Compound 61-B, 6-amino-2-[3,5-dichloro-4-([5-[1-(3,3-difluorocyclobutyl)ethyl]-6-oxo-1H-pyridazin-3-yl]oxy)phenyl]-4H-1,2,4-tri-azine-3,5-dione] | A (Emax≥75%) | – |
| > 25000 | – | 50 to 250 | – | – | < 50 | 50 to 75 | 100 to 1000 | – | – | Nc1nn(-c2cc(Cl)c(Oc3cc(-c4ccc5c(c4)CCCC5)c(=O)[nH]n3)c(Cl)c2)c(=O)[nH]c1=O [Compound 72, 6-Amino-2-(3,5-dichloro-4-((6-oxo-5-(5,6,7,8-tetrahydro-naphthalen-2-yl)-1,6-dihydro-pyridazin-3-yl)oxy)phenyl)-1,2,4-triazine-3,5(2H,4H)-dione] | – | > 75 |
| < 50 | – | < 50 | – | – | > 75 | 50 to 75 | < 100 | – | – | Cc1cc(-n2nc(N)c(=O)[nH]c2=O)cc(C)c1Cc1ccc2c(c1)C1(CC1)C(=O)N2 [Compound 151, 6-Amino-2-(3,5-dimethyl-4-((2′-oxospiro[cyclopropane-1,3′-indolin]-5′-yl)methyl)phenyl)-1,2,4-triazine-3,5(2H,4H)-dione] | – | > 75 |
| < 50 | – | 50 to 250 | – | – | < 50 | > 75 | 100 to 1000 | – | – | CC(C)c1c[nH]c2ccc(Oc3c(Cl)cc(-n4nc(C#N)c(=O)[nH]c4=O)cc3Cl)cc12 [Compound 1, 2-[3,5-dichloro-4-[(3-isopropyl-1H-indol-5-yl)oxy]-phenyl]-3,5-dioxo-4H-1,2,4-tri-azine-6-carbonitrile] | – | > 75 |
| 250 to 1000 | – | < 50 | – | – | 50 to 75 | > 75 | < 100 | – | – | Cc1cc(-n2nc(N)c(=O)[nH]c2=O)cc(C)c1Cc1cc2c(C(C)C)c[nH]c2cn1 [Compound 157, 6-amino-2-[4-[(3-isopropyl-1H-pyrrolo[2,3-c]pyridin-5-yl)methyl]-3,5-dimethyl-phenyl]-1,2,4-triazine-3,5-dione] | – | > 75 |
| < 50 | – | < 50 | – | – | 50 to 75 | 50 to 75 | < 100 | – | – | Nc1nn(-c2cc(Cl)c(Oc3ccc4c(c3)C3(CCCC3)C(=O)N4)c(Cl)c2)c(=O)[nH]c1=O [Compound 83] | – | > 75 |
| 250 to 1000 | – | 50 to 250 | – | – | < 50 | > 75 | 100 to 1000 | – | – | CC(C)c1cc(Oc2c(Cl)cc(-c3nn(C)c(=O)[nH]c3=O)cc2Cl)n[nH]c1=O [Compound 16, 6-[3,5-dichloro-4-[(5-isopropyl-6-oxo-1H-pyridazin-3-yl)oxy]phenyl]-2-methyl-4H-1,2,4-triazine-3,5-dione] | – | < 50 |
| 50 to 250 | – | 50 to 250 | – | – | 50 to 75 | > 75 | < 100 | 58 | 92 | Nc1nn(-c2cc(Cl)c(Oc3cc(C4CCC4)c(=O)[nH]n3)c(Cl)c2)c(=O)[nH]c1=O [Compound 40, 6-amino-2-[3,5-dichloro-4-[(5-cyclobutyl-6-oxo-1H-pyridazin-3-yl)oxy]phenyl]-4H-1,2,4-triazine-3,5-dione] | – | > 75 |
| > 25000 | – | – | – | – | < 50 | < 50 | 100 to 1000 | – | – | Nc1nn(-c2cc(Cl)c(Oc3n[nH]c(=O)cc3-c3ccc4ccccc4c3)c(Cl)c2)c(=O)[nH]c1=O [Compound 67-A, 6-amino-2-(3,5-dichloro-4-((4-(naphthalen-2-yl)-6-oxo-1,6-dihydropyridazin-3-yl)oxy)phenyl)-1,2,4-triazine-3,5(2H,4H)-dione] | – | < 50 |
| 250 to 1000 | – | 50 to 250 | – | – | < 50 | 50 to 75 | < 100 | – | – | Nc1nn(-c2cc(Cl)c(Oc3cc(C45CCC(C4)C5)c(=O)[nH]n3)c(Cl)c2)c(=O)[nH]c1=O [Compound 101] | – | < 50 |
| 250 to 1000 | – | 50 to 250 | – | – | < 50 | < 50 | 100 to 1000 | – | – | Cc1ccc(-c2cc(Oc3c(Cl)cc(-n4nc(N)c(=O)[nH]c4=O)cc3Cl)n[nH]c2=O)cc1C [Compound 112] | – | > 75 |
| 50 to 250 | – | < 50 | – | – | 50 to 75 | > 75 | < 100 | – | – | CC(c1cc(Oc2c(Cl)cc(-n3nc(N)c(=O)[nH]c3=O)cc2Cl)n[nH]c1=O)C1CC(F)(F)C1 (single isomer, unassigned) [Compound 61-A, 6-amino-2-[3,5-dichloro-4-([5-[1-(3,3-difluorocyclobutyl)ethyl]-6-oxo-1H-pyridazin-3-yl]oxy)phenyl]-4H-1,2,4-tri-azine-3,5-dione] | B (Emax≥50%, and <75%) | – |
| 50 to 250 | B (Emax≥50%, and <75%) | < 50 | A (Emax≥75%) | < 100 | – | – | – | – | – | CCC(C)c1cc(Oc2c(Cl)cc(-n3nc(N)c(=O)[nH]c3=O)cc2Cl)n[nH]c1=O (stereo not drawn) [Compound 39-B] | A (Emax≥75%) | – |
| < 50 | – | – | – | – | > 75 | > 75 | < 100 | – | – | Cc1cc(-n2nc(N)c(=O)[nH]c2=O)cc(C)c1Cc1ccc(O)c(-c2ccccc2)n1 [Compound 43, 6-amino-2-[4-[(5-hydroxy-6-phenylpyridin-2-yl)-methyl]-3,5-dimethylphenyl]-4H-1,2,4-triazine-3,5-dione] | – | > 75 |

— patent US12180192B2, “Modulators of THR-β and methods of use thereof” (ALIGOS THERAPEUTICS, INC., priority 2019, dated 2024)
